Source: PMC7932080, “In vitro study of Hesperetin and Hesperidin as inhibitors of zika and chikungunya virus proteases” (PLoS ONE, 2021)
Values joined by “and” are separate entries in the source; they are usually repeats but may differ in a detail not shown here. Equal entries are not always repeated. Where two headings read alike, the source gives them in different places.

Columns and labels:
[1] = biological target: T1, ZIKV NS2B/NS3^pro (Zika virus, UniProt A0A024B7W1); set-up: method as in PMID 28700665; settings: cited from earlier work
T1 sequence (A0A024B7W1 1425-1464): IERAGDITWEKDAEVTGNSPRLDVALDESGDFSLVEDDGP
T1 sequence (A0A024B7W1 1503-1680): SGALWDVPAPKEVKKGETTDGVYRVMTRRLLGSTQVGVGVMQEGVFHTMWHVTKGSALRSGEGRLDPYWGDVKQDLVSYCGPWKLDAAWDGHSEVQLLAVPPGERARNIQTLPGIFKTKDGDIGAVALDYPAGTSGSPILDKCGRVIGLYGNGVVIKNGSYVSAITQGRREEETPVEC

[2] = biological target: T2, CHIKV nsP2^pro (Chikungunya virus, UniProt Q8JUX6); set-up: method as in PMID 32791353; settings: cited from earlier work
T2 sequence (Q8JUX6 1001-1333): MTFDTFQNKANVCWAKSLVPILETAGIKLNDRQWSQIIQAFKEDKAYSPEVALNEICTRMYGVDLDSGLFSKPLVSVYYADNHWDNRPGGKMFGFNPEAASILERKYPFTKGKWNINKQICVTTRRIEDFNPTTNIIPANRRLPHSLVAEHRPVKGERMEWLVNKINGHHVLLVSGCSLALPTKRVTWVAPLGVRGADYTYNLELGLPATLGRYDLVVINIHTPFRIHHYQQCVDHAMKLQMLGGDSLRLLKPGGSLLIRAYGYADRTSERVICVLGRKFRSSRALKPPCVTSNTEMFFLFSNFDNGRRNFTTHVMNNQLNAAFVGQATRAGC

[3] = biological target: T2, CHIKV nsP2^pro; experiment: CHIKV nsP2^pro FRET-based inhibition assay; type: biochemical; settings: for % activity, mean / % inhibition, mean: mean n=3
[4] = system: trypsin; set-up: method as in PMID 23124490; settings: cited from earlier work
[5] = system: CHIKV; settings: cited from earlier work
[6] = dose of administration 20 mg/kg, cited from earlier work
[7] = cited from earlier work
[8] = cited from earlier work; remark: listed apart in the source
[9] = system: Vero cells; experiment: Cell viability through MTT assay
[10] = biological target: T2, CHIKV nsP2^pro; experiment: Intrinsic Trp fluorescence titration (KD); settings: Trp fluorescence quenching, ± STD
[11] = biological target: T2, CHIKV nsP2^pro; experiment: Thermal unfolding by fluorescence spectroscopy; settings: 10 µM protease, 75 µM ligand
[12] = system: CHIKV; experiment: Plaque reduction antiviral assay in Vero cells; settings: ~50 PFU, two inhibitor concentrations
[13] = biological target: T1, ZIKV NS2B/NS3^pro; experiment: ZIKV NS2B/NS3^pro inhibition assay, fluorogenic substrate Pyr-Arg-Thr-Lys-Arg-AMC; settings: compound 20 µM

SMILES: O=c1c(O)c(-c2ccc(O)c(O)c2)oc2cc(O)cc(O)c12 [Quercetin]
- IC50 [1]: 2.4 ± 0.2 µM
- Inhibition mode [1]: noncompetitive

SMILES: COc1cc(-c2oc3cc(O)cc(O)c3c(=O)c2O)ccc1O [Isorhamnetin]
- IC50 [1]: 15.5 ± 0.7 µM
- Inhibition mode [1]: noncompetitive

SMILES: CO[C@@H]1[C@@H](OC(N)=O)[C@@H](O)[C@H](Oc2ccc3c(O)c(NC(=O)c4ccc(O)c(CC=C(C)C)c4)c(=O)oc3c2C)OC1(C)C [Novobiocin]
- IC50 [2]: 2 µM

SMILES: O=c1cc(-c2ccc(O)cc2)oc2cc(O)cc(O)c12 [Apigenin]
- IC50 [1]: 56.3 ± 0.9 µM
- Inhibition mode [1]: noncompetitive

SMILES: O=c1cc(-c2ccc(O)c(O)c2)oc2cc(O)cc(O)c12 [Luteolin]
- Inhibition mode [1]: noncompetitive

SMILES: O=c1c(O)c(-c2cc(O)c(O)c(O)c2)oc2cc(O)cc(O)c12 [Myricetin]
- IC50 [1]: 1.3 ± 0.1 µM
- Inhibition mode [1]: noncompetitive

SMILES: CCCc1nc2c(C)cc(-c3nc4ccccc4n3C)cc2n1Cc1ccc(-c2ccccc2C(=O)O)cc1 [Telmisartan]
- IC50 [2]: 5 µM

SMILES: COc1cc(/C=C/C(=O)CC(=O)/C=C/c2ccc(O)c(OC)c2)ccc1O [Curcumin]
- Inhibition mode [1]: noncompetitive

SMILES: COc1ccc([C@@H]2CC(=O)c3c(O)cc(O[C@@H]4O[C@H](CO[C@@H]5O[C@@H](C)[C@H](O)[C@@H](O)[C@H]5O)[C@@H](O)[C@H](O)[C@H]4O)cc3O2)cc1O [HSD, 3’,5,7-trihydroxy-4’-methoxy-flavanone-7-rhamnoglucoside]
- IC50 ([3]; 1 µM protease, 3 µM substrate, mean ± SD, n=3): < 10000 nM
- LE (ligand efficiency) ([3]; (1.4*pIC50)/N): 0.17
- % activity, mean ([3]; HSD 0.25 (µM)): 97.3333%
- % inhibition, mean ([3]; HSD 0.25 (µM)): 2.667%
- % activity, mean ([3]; HSD 0.5 (µM)): 90.3333%
- % inhibition, mean ([3]; HSD 0.5 (µM)): 9.667%
- inhibition at 0.5 µM ([3]; HSD 0.5 (µM), replicates A-C): 11%
- % activity, mean ([3]; HSD 1 (µM)): 82%
- % inhibition, mean ([3]; HSD 1 (µM)): 18%
- % activity ([3]; HSD 1 (µM), replicates A-C): 84%
- % inhibition ([3]; HSD 1 (µM), replicates A-C): 16%
- inhibition at 1 µM ([3]; HSD 1 (µM), replicates A-C): 22%
- % activity, mean ([3]; HSD 2.5 (µM)): 72.3333%
- % inhibition, mean ([3]; HSD 2.5 (µM)): 27.6667%
- inhibition at 2.5 µM ([3]; HSD 2.5 (µM), replicates A-C): 33%
- % activity, mean ([3]; HSD 5 (µM)): 54.6667%
- % inhibition, mean ([3]; HSD 5 (µM)): 45.3333%
- inhibition at 5 µM ([3]; HSD 5 (µM), replicates A-C): 49%
- % activity, mean ([3]; HSD 10 (µM)): 39.6667%
- % inhibition, mean ([3]; HSD 10 (µM)): 60.3333%
- inhibition at 10 µM ([3]; HSD 10 (µM), replicates A-C): 62%
- % activity, mean ([3]; HSD 15 (µM)): 28.6667%
- % inhibition, mean ([3]; HSD 15 (µM)): 71.3333%
- % activity ([3]; HSD 15 (µM), replicates A-C): 30%
- % inhibition ([3]; HSD 15 (µM), replicates A-C): 70%
- inhibition at 15 µM ([3]; HSD 15 (µM), replicates A-C): 74%
- % activity, mean ([3]; HSD 20 (µM)): 21%
- % inhibition, mean ([3]; HSD 20 (µM)): 79%
- inhibition at 20 µM ([3]; HSD 20 (µM), replicates A-C): 82%
- % activity, mean ([3]; HSD 25 (µM)): 10.3333%
- % inhibition, mean ([3]; HSD 25 (µM)): 89.6667%
- inhibition at 25 µM ([3]; HSD 25 (µM), replicates A-C): 93%
- % activity, mean ([3]; HSD 30 (µM)): 6%
- % inhibition, mean ([3]; HSD 30 (µM)): 94%
- inhibition at 30 µM ([3]; HSD 30 (µM), replicates A-C): 97%
- % activity, mean ([3]; HSD 35 (µM)): 3%
- inhibition at 35 µM ([3]; HSD 35 (µM), replicates A-C): 99%
- % activity, mean ([3]; HSD 40 (µM)): 0.4%
- % inhibition, mean ([3]; HSD 40 (µM)): 99.6%
- inhibition at 40 µM ([3]; HSD 40 (µM), replicates A-C): 99.7%
- inhibition at 45 µM ([3]; HSD 45 (µM), replicates A-C): 100%
- IC50 ([3]; IC50, 1 µM protease, 3 µM substrate, mean ± SD, n=3): 7100 ± 1100 nM
- IC50 ([3]; IC50, single replicate, HSD, single replicates A, B, C): 8.32 µM (2×) and 5.62 µM (2×) and 7.24 µM (2×)
- Inhibition mode ([3]; Lineweaver-Burk plot): noncompetitive
- IC50 ([3]; Log conc nM (IC50 determination triplicate), HSD, single replicates A, B, C): 8320 nM and 5620 nM and 7240 nM
- IC50 ([3]; pIC50, from IC50 by online tool): 6310 nM
- remaining activity at 0.25 µM ([3]; read-out: % activity, HSD 0.25 (µM), replicates A-C): 95%
- remaining activity at 0.5 µM ([3]; read-out: % activity, HSD 0.5 (µM), replicates A-C): 89%
- remaining activity at 1 µM ([3]; read-out: % activity, HSD 1 (µM), replicates A-C): 78%
- remaining activity at 2.5 µM ([3]; read-out: % activity, HSD 2.5 (µM), replicates A-C): 67%
- remaining activity at 5 µM ([3]; read-out: % activity, HSD 5 (µM), replicates A-C): 51%
- remaining activity at 10 µM ([3]; read-out: % activity, HSD 10 (µM), replicates A-C): 38%
- remaining activity at 15 µM ([3]; read-out: % activity, HSD 15 (µM), replicates A-C): 26%
- remaining activity at 20 µM ([3]; read-out: % activity, HSD 20 (µM), replicates A-C): 18%
- remaining activity at 25 µM ([3]; read-out: % activity, HSD 25 (µM), replicates A-C): 7%
- remaining activity at 45 µM ([3]; read-out: % activity, HSD 45 (µM), replicates A-C): 0%
- inhibition at 20 µM ([3]; read-out: Inhibition of protease activity, preliminary inhibition test, compound 20 µM): > 60%
- IC50 [4]: 127 µM
- Intracellular replication of CHIKV [5]: inhibit
- AUC inf. [6]: 4.92 ± 0.38 µM·h
- AUC last [6]: 4.12 ± 0.26 µM·h
- Cl systemic clearance [6]: 112 ± 9.67 mL/min/kg
- MRT mean residence time [6]: 4.22 ± 0.67 h
- T1/2 elimination half-life [6]: 6.74 ± 0.79 h
- Vd volume of distribution [6]: 64.58 ± 3.70 L/kg
- C0 ([6]; read-out: Co initial concentration): 7.47 ± 1.64 µM
- Potential maximal tolerated dose [7]: Citrus flavonoids are extremely safe and without side effects also up to high concentrations of 100 mg/kg to 500 mg/kg.
- Bioavailability [8]: limited bioavailability
- Cytotoxic effect at the calculated IC50 concentrations ([9]; 2.3 to 300 µM, 2 days): no cytotoxic effect
- 50% cytotoxic concentration ([9]; 48 h, concentrations up to 300 µM): > 300 µM
- Kd [10]: 40.7 ± 2 µM
- Melting temperature (Tm) of protease-ligand complex [11]: 52 °C
- ΔTm [11]: 5 °C
- Antiviral activity, plaque reduction [12]: no antiviral activities
- Inhibition of protease activity, preliminary inhibition test [13]: not relevant inhibition
